Experimental data from patent publication US6265443A, “Method for treating neuronal injury with carboxyfullerene” (priority 1997, dated 2001).
“Also recorded” adds a separate entry of the source.

Legend:
[1] = tested on: cortical neurons; test: Neuroprotection, general statement; type: cell-based, mouse
Procedure: (§1) Mouse embryos (gestational day 15) are removed from pregnant anesthetized Swiss-Webster mice, and the neocortex is dissected away from other brain structures. After brief incubation in trypsin, the cells are dissociated by trituration, and the cell suspension is then diluted into plating medium and plated onto previously-prepared 24-well Plastek culture plates coated with poly-D-lysine/laminin (for neuronal cultures) or onto an existing bed of astrocytes (for co-cultures). After 1-2days in vitro, a partial exchange with glial conditioned medium is made for "pure" neuronal cultures, and cytosine arabinoside (3 μM) is added immediately after feeding to inhibit glial proliferation. Mixed cultures are fed biweekly with growth medium until 11-12 days in vitro, when they are fed with serum-free MS containing 2 mM L-glutamine. Unless otherwise stated, cells were used at 14-16 days in vitro.

[2] = Solubility; type: physicochemical
Description: Solutions of carboxyfullerene were translucent brown.

[3] = tested on: cortical neurons; test: NMDA-induced excitotoxic neuronal death in neuron-astrocyte co-cultures (LDH efflux); type: cell-based, mouse
Procedure: as §1
Carboxyfullerene (3-300 (M) was co-applied to neuron-astrocyte co-cultures described above with NMDA for assessment of neuroprotection. Brief exposure to NMDA in the presence of the carboxyfullerene was carried out by triple exchange of the medium with HBBSS, followed by addition of 50 μM-500 μM NMDA plus carboxyfullerene for 10 minutes. The NMDA and carboxyfullerene were removed by quadruple exchange of the medium with MS, and the cultures were placed in the humidified, CO2 (5%), 37° C. incubator for 24 hours, when the extent of injury was assessed.

[4] = tested on: endothelial cell cultures; test: Protection in endothelial cell cultures; type: cell-based
[5] = EPR free radical scavenging (hydroxyl and superoxide); conditions: for anti-oxidant potency, isomers compared: EPR analysis
Procedure: FIGS. 9A and 9B show the EPR spectra of OH (from 100 μM H2 O2 in Fe^2+ by the Fenton reaction) and O2 - (from xanthine+xanthine oxidase) radicals with 100 mM 5,5-dimethyl-1-pyrolline-N-oxide (DMPO) as the spin-trapping agent. Hydroxyl radical (FIG. 9A): OH in the presence of […] alone (top), in the presence of 4 mM O-3a (middle), or in the presence of 4 mM R-3b (bottom). Superoxide radical (right): O2 - in DMPO alone (top), in the presence of 400 mM O-3a (middle), in the presence of 400 mM R-3b (bottom). […] The sample was analyzed in a quartz flat cell (60×10×0.25 mm) in a Bruker 200, X-band EPR spectrometer. Settings were power=1.6 mW, modulation=1 G, field modulation=100 Hz, R.G.=3.2×10^5.

[6] = EPR spin-trap (DMPO) hydroxyl radical scavenging; conditions: for scavenging of OH: EPR
Procedure: (§2) FIGS. 9A and 9B show the EPR spectra of OH (from 100 μM H2 O2 in Fe^2+ by the Fenton reaction) and O2 - (from xanthine+xanthine oxidase) radicals with 100 mM 5,5-dimethyl-1-pyrolline-N-oxide (DMPO) as the spin-trapping agent. Hydroxyl radical (FIG. 9A): OH in the presence of […] alone (top), in the presence of 4 mM O-3a (middle), or in the presence of 4 mM R-3b (bottom). Superoxide radical (right): O2 - in DMPO alone (top), in the presence of 400 mM O-3a (middle), in the presence of 400 mM R-3b (bottom). The arrow designates a spurious signal due to an unknown radical in the cavity. The sample was analyzed in a quartz flat cell (60×10×0.25 mm) in a Bruker 200, X-band EPR spectrometer. Settings were power=1.6 mW, modulation=1 G, field modulation=100 Hz, R.G.=3.2×10^5.

[7] = EPR spin-trap (DMPO) superoxide radical scavenging, xanthine + xanthine oxidase; conditions: xanthine oxidase with xanthine
Procedure: as §2

[8] = tested on: cortical neurons; test: AMPA-induced excitotoxic neuronal death in neuron-astrocyte co-cultures (LDH efflux); type: cell-based, mouse
Procedure: as §1

[9] = tested on: hepatocytes; test: Protection in hepatocytes; type: cell-based
[10] = Spin-label/EPR membrane parameters (5- or 16-doxyl ketostearic acid in brain lipids); set-up: species or system mouse; conditions: 16-doxylstearic acid; control 0.8
Procedure: Values are mean±SEM, n=8-12 per condition. I=p<0.05 vs. untreated injury condition, using ANOVA followed by Student-Newman-Keuls test for multiple comparisons. **=p<0.05 R-3b different than O-3a. […] The spin labels were added to lipids extracted from adult mouse brain at a ratio of 1:100. EPR settings were the same as those listed in the legend for FIGS. 9A and 9B.
^a Order parameter, S = a(T_.cent. - T .cent.)/(T - T ),
^b Correlation time, tc = 6.5 × 10^-10 wo [(ho
^c Lipid/aqueous partition factor, f = hL /hA, where hL

[11] = tested on: NMDA receptor; test: NMDA-stimulated 45Ca2+ accumulation in cultured neurons; type: cell-based, mouse; conditions: up to 300 (M [µM], with NMDA 300 (M, 10 min
Procedure: as §1, with “Mouse neocortical cultures were prepared as neuron-astrocyte co-cultures (approximately 50% astrocytes) (Rose et al., 1992) or as neuronal cultures (<2% astrocytes). Mouse” for “Mouse”
To verify that protection against NMDA-induced neuronal cell injury was not due to a reduction in NMDA-induced calcium influx, ^45 Ca^2+ tracer studies were performed. […]

[12] = tested on: FALS mice; test: Survival in transgenic model of ALS (FALS mice, Gurney G1 strain); type: in vivo, mouse; conditions: 15 mg/kg/day, intraperitoneal mini-osmotic pumps
Procedure: The G1 line, with 18 copies and 4 times the SOD activity of wildtype animals, develops motor neuron death by 3-4 months of age, with hindlimb weakness, impaired grooming, and thinning along their flanks. Affected mice were dead before 5 months of age (Gurney et al., 1994).
C60 (C(COOH)2)3 was used to treat FALS mice (Gurney G1 strain) to determine its ability to treat FALS. At 10 weeks of age, Alzet mini-osmotic pumps (28 day, 6 (l/day, 15 mg/kg/day) containing C60 (C(COOH)2)3 (the mixed isomers, which consist of >90% O-3a) or saline were implanted intraperitoneally. The pumps were replaced at 14 weeks of age. Videotaped assessments of open field walking were performed and scored using the Bresnahan scale for spinal cord injury (Basso et al, 1995). As reported by Gurney and colleagues, these animals develop motor symptoms by approximately 90 days of age, and are moribund between 125 and 145 days of age.

[13] = tested on: cortical neurons; test: Serum deprivation apoptotic neuronal death (trypan blue); type: cell-based, mouse
Procedure: as §1

[14] = tested on: wild-type animals; conditions: mouse, in vivo, 15 mg/kg/day
Description: The 8 day increase in survival reached statistical significance (p=0.041), by t-test. There was no difference in survival for FALS mice who received no pumps (123 days, n=4) or those treated with saline-filled pumps (125 days, n=6).

[15] = native C60; toluene or benzene; cited from earlier work

Question: What does the source list for `O=C(O)C1(C(=O)O)C23c4c5c6c7c8c9c(c%10c%11c2c2c4c4c%12c5c5c6c6c8c8c%13c9c9c%10c%10c%11c%11c2c2c4c4c%12c%12c5c5c6c8c6c8c%13c9c9c%10c%10c%11c2c2c4c4c%12c5c6c5c8c9c%10c2c45)C713` [dicarboxy fullerene]?
Answer: neuroprotective efficacy vs hexacarboxy derivative [1]: less effective neuroprotectants; solubility in aqueous solution vs hexacarboxy derivative ([2]; aqueous solution): less soluble

Question: What does the source list for `O=C(O)C1(C(=O)O)C23c4c5c6c7c8c4-c4c2c2c9c%10c%11c%12c(c-5c5c%13c%14c%15c%16c%17c(c-7c7c%18c%19c%20c%21c(c4C%204C(C(=O)O)(C(=O)O)C874)c2c2c9c4c%11c7c(c%13%12)c%14c8c%16c9c(c%18%17)c%19c%11c%21c2c2c4c7c8c9c%112)C%152C(C(=O)O)(C(=O)O)C652)C%1013` (stereo not shown) [O-3a]?
Answer: protection from NMDA injury vs R-3b ([3]; FIG. 10A, n=8-12 per condition): slightly better protection; protection from injury in endothelial cell cultures vs R-3b [4]: enhanced protection over R-3b; anti-oxidant potency, isomers compared [5]: equipotent anti-oxidants; OH signal (DMPO-OH spin adduct) ([6]; 150 (M [µM], H2O2, 15 minute period): elimination of this OH signal; scavenging of OH [6]: extremely potent scavengers of OH; superoxide radical signal (DMPO-OOH) [7]: eliminated the superoxide radical signal; protection against AMPA-induced neuronal death vs R-3b ([8]; FIG. 10B, n=8-12 per condition): substantially better protection; protection from injury in hepatocytes vs R-3b [9]: enhanced protection over R-3b; Lipid/aqueous partition factors [10]: 1.0 ± 0.2

Question: Which “protection from NMDA, some experiments” value ([3]; 300 (M [µM]) does the source give for C60 (C(COOH)2)3 here?
Answer: nearly complete protection

Question: What about the “reduction of neuronal death from NMDA, all experiments” value ([3]; 300 (M [µM], 24 h after 10 min NMDA, 300 µM) of the same compound?
Answer: at least 60%

Question: And the “protection against NMDA excitotoxic injury” value ([3]; cortical neurons)?
Answer: protected cortical neurons against excitotoxic injury; also recorded: robust neuroprotection

Question: What about the “reduction in neuronal cell death (NMDA), pooled data” value ([3]; pooled data from three experiments, FIG. 5) of the same compound?
Answer: 75%

Question: And the “scavenging ability towards OH vs potency for O2- radicals” value ([5]; OH over O2-)?
Answer: 10 fold

Question: And the “45Ca2+ accumulation” value [11]?
Answer: not affected

Question: And the “reduction of neuronal cell death from AMPA” value ([8]; 100 (M [µM], MK-801 10 (M included), 24 h, data from 4 experiments pooled, 100 µM)?
Answer: > 80%

Question: What about the “protection against AMPA excitotoxic injury” value ([8]; cortical neurons) of the same compound?
Answer: protected cortical neurons against excitotoxic injury; also recorded: robust neuroprotection

Question: And the onset of symptoms [12]?
Answer: delay in onset of symptoms

Question: What about the delay in death ([12]; p=0.041 by t-test) of the same compound?
Answer: 8 ± 2.2 days

Question: What about the solubility in water ([2]; water) of the same compound?
Answer: at least 50 mM

Question: And the “reduction in neuronal death, serum deprivation” value ([13]; 10 (M [µM], 48 hours, trypan blue, 10 µM)?
Answer: 50%

Question: What about the “apoptotic neuronal death due to serum deprivation” value ([13]; co-application) of the same compound?
Answer: attenuated

Question: And the “body weight vs untreated littermates” value [14]?
Answer: weights were similar

Question: Which “solubility (solvents)” value [15] does the source give for `c12c3c4c5c1c1c6c7c2c2c8c3c3c9c4c4c%10c5c5c1c1c6c6c%11c7c2c2c7c8c3c3c8c9c4c4c9c%10c5c5c1c1c6c6c%11c2c2c7c3c3c8c4c4c9c5c1c1c6c2c3c41` [C60, Buckminsterfullerene] here?
Answer: soluble only in a limited number of solvents, such as toluene or benzene

Question: Which “anti-oxidant potency, isomers compared” value [5] does the source give for `O=C(O)C1(C(=O)O)C23c4c5c6c7c8c9c%10c%11c%12c%13c%14c%15c(c6c6c4c4c%16c%17c%18c(c%19c%20c2c5c8c2c%20c5c%19c8c%19c%20c(c%21c%12c%12c%22c%23c(c(c%188)C%198C(C(=O)O)(C(=O)O)C%21%228)c%17c8c4c6c%15c(c%12%14)c%238)c%11c(c92)c%205)C%1613)C71C(C(=O)O)(C(=O)O)C%13%101` (stereo not shown) [R-3b] here?
Answer: equipotent anti-oxidants

Question: And the “scavenging of OH” value [6]?
Answer: extremely potent scavengers of OH

Question: What about the neuroprotection [1] of the same compound?
Answer: effective neuroprotectant

Question: And the “superoxide radical signal (DMPO-OOH)” value [7]?
Answer: eliminated the superoxide radical signal

Question: And the Lipid/aqueous partition factors [10]?
Answer: 0.6
